Paper PMC5485989, “Role of Free Radicals and Biotransformation in Trichloronitrobenzene-Induced Nephrotoxicity In Vitro” (International Journal of Molecular Sciences, 2017)
Marks after values point to notes of the source that are not given here.

Tests used:
[1] = tested on: isolated renal cortical cells (IRCC); test: Time and concentration cytotoxicity study, LDH release in IRCC; assay type: cell-based, male Fischer 344 rats; conditions: for Cytotoxicity (LDH release), time and concentration response: 0.5 or 1.0 mM, 15-120 min, significant difference from DMSO control, p < 0.05
Procedure: To determine the comparative nephrotoxic potential of the four TCNBs in IRCC, a time and concentration response study was performed starting at 15 min and 0.5 or 1.0 mM and adjusting the times tested based on the results (Figure 2).

renal cortical slices = conditions: cited from earlier work
[2] = tested on: isolated renal cortical cells (IRCC); test: Effect of antioxidant or biotransformation inhibitor pretreatment on TCNB cytotoxicity, LDH release in IRCC; conditions: for Effect of pretreatment on 3,4,5-TCNB cytotoxicity: 0.5 mM 3,4,5-TCNB, 30 min exposure; for Effect of pretreatment on 3,4,5-TCNB cytotoxicity / Effect of pretreatment on 2,3,4-TCNB cytotoxicity / Effect of pretreatment on 2,4,5-TCNB cytotoxicity / Effect of pretreatment on 2,4,6-TCNB cytotoxicity: IRCC; for Effect of pretreatment on 2,3,4-TCNB cytotoxicity: 1.0 mM 2,3,4-TCNB, 60 min exposure; for Effect of pretreatment on 2,4,5-TCNB cytotoxicity: 1.0 mM 2,4,5-TCNB; for Effect of pretreatment on 2,4,5-TCNB cytotoxicity / Effect of pretreatment on 2,4,6-TCNB cytotoxicity: 90 min exposure; for Effect of pretreatment on 2,4,6-TCNB cytotoxicity: 1.0 mM 2,4,6-TCNB; for % of lactate dehydrogenase release, PreTx: pretreatment compound alone, no TCNB; for % of lactate dehydrogenase release, PreTx / % of lactate dehydrogenase release, PreTx + TCNB: mean ± S.E., n = 4
Procedure: Untreated rats were anesthetized with pentobarbital (75 mg/kg, i.p.) and isolated renal cortical cells (IRCC) were obtained by using the collagenase perfusion method. Initial cell viability was determined by measuring trypan blue (2% w/v) exclusion and lactate dehydrogenase (LDH) release. […] IRCC were then exposed to various concentrations of a TCNB (0, 0.5, or 1.0 mM) for 15, 30, 60, 90, or 120 min. Following the incubation period, flasks were removed and placed on ice. Samples (0.5 mL) were taken for LDH release assays. Briefly, the samples were centrifuged (3000× g, 3 min), the was supernatant decanted and saved, and the pellet was disrupted with 1 mL of 10% Triton X-100 solution to release cellular LDH activity. LDH activity was then determined in each fraction (supernatant and pellet) as previously described using a kinetic assay based on the amount of NADH produced from NAD [57]. The LDH released was expressed as % of total (supernatant plus pellet).
Concentrations used in these experiments were 0.5 mM (3,4,5-TCNB) or 1.0 mM (2,3,4-, 2,4,5- and 2,4,6-TCNB). Incubation times with a TCNB added were 30 min (3,4,5-TCNB), 60 min (2,3,4-TCNB), or 90 min (2,4,5- and 2,4,6-TCNB). The pretreatment times and concentrations for all of the pretreatments are shown below in Table 5.

[3] = Table 1 experiments, 60 min incubation
[4] = Table 2 experiments, 90 min incubation
[5] = pretreatment compound followed by 1.0 mM 2,3,4-TCNB, 60 min
[6] = pretreatment compound followed by 1.0 mM 2,4,5-TCNB, 90 min
[7] = pretreatment compound followed by 1.0 mM 2,4,6-TCNB, 90 min
[8] = Table 3 experiments, 90 min incubation

SMILES	Cytotoxicity (LDH release), time and concentration response [1]	Concentration at which cytotoxicity was evident ([1]; as early as 30 min)	Lowest concentration reducing pyruvate-stimulated gluconeogenesis and increasing LDH release (renal cortical slices)	Effect of pretreatment on 3,4,5-TCNB cytotoxicity [2]	Effect of pretreatment on 2,3,4-TCNB cytotoxicity [2]	Effect of pretreatment on 2,4,5-TCNB cytotoxicity [2]	Effect of pretreatment on 2,4,6-TCNB cytotoxicity [2]	% of lactate dehydrogenase release, PreTx [2, 3]	% of lactate dehydrogenase release, PreTx [2, 4]	% of lactate dehydrogenase release, PreTx + TCNB [2, 5]	% of lactate dehydrogenase release, PreTx + TCNB [2, 6]	% of lactate dehydrogenase release, PreTx + TCNB [2, 7]	% of lactate dehydrogenase release, PreTx [2, 8]
O=[N+]([O-])c1cc(Cl)c(Cl)cc1Cl [2,4,5-TCNB]	induced cytotoxicity at 90 min (0.5 mM) and 120 min (0.5 and 1.0 mM), but not at 60 min with either concentration												
O=[N+]([O-])c1c(Cl)cc(Cl)cc1Cl [2,4,6-TCNB]	cytotoxicity was observed at 30 and 60 min (0.5 and 1.0 mM) but not at 15 min with either concentration	500 µM											
O=[N+]([O-])c1ccc(Cl)c(Cl)c1 [3,4-DCNB, 3,4-dichloronitrobenzene]			0.5 mM										
O=C1O[C@H]([C@@H](O)CO)C(O)=C1O [Ascorbate]				attenuation of 3,4,5-TCNB cytotoxicity	attenuation of 2,3,4-TCNB cytotoxicity	attenuation of 2,4,5-TCNB cytotoxicity	attenuation of 2,4,6-TCNB cytotoxicity	12 ± 1%	12 ± 1%	14 ± 1 ^d %	16 ± 2 ^d %	17 ± 2 ^c,d %	
N[C@@H](CCC(=O)N[C@@H](CS)C(=O)NCC(=O)O)C(=O)O [Glutathione]				attenuation of 3,4,5-TCNB cytotoxicity	attenuation of 2,3,4-TCNB cytotoxicity	attenuation of 2,4,5-TCNB cytotoxicity	attenuation of 2,4,6-TCNB cytotoxicity	13 ± 1%	15 ± 1%	14 ± 1 ^d %	17 ± 2 ^d %	20 ± 1 ^c,d %	
COc1ccc2c(c1)c(CC(=O)O)c(C)n2C(=O)c1ccc(Cl)cc1 [Indomethacin]				reduced	reduced		reduced	13 ± 1%	16 ± 2%	16 ± 2 ^c,d %	21 ± 2 ^c %	21 ± 1 ^c,d %	16 ± 1 ^c %
NNC(=O)c1ccncc1 [Isoniazid]				at least some attenuation	reduced			11 ± 1%	10 ± 1%	19 ± 1 ^c,d %	34 ± 1 ^c,d %	28 ± 2 ^c %	
O=C(O)CC(S)C(=O)O (stereo not drawn) [Mercaptosuccinate]				reduced	reduced			10 ± 1%	17 ± 1 ^c %	10 ± 1 ^d %	24 ± 1 ^c %	31 ± 1 ^c %	16 ± 1%
Cn1cc[nH]c1=S [Methimazole]				reduced	reduced		reduced	9 ± 1%	14 ± 2%	11 ± 1 ^d %	23 ± 2 ^c %	31 ± 2 ^c %	17 ± 1%
CC(C)(C(=O)c1cccnc1)c1cccnc1 [Metyrapone]				reduced			reduced	12 ± 1%	16 ± 1 ^c %	17 ± 1 ^c %	28 ± 2 ^c %	27 ± 2 ^c %	15 ± 1%
CC(=O)N[C@@H](CS)C(=O)O [NAC, N-acetyl-L-cysteine]				attenuation of 3,4,5-TCNB cytotoxicity	attenuation of 2,3,4-TCNB cytotoxicity	attenuation of 2,4,5-TCNB cytotoxicity	not reduced	13± 1%	15 ± 1%	16 ± 1 ^c,d %	17 ± 1 ^d %	23 ± 2 ^c %	13 ± 1%
CCCCOCCOCCOCc1cc2c(cc1CCC)OCO2 [PiBx, Piperonyl butoxide]				reduced	reduced			10 ± 1%	11 ± 2%	12 ± 1 ^c,d %	24 ± 3 ^c %	22 ± 1 ^c %	13 ± 1%
CCN(CC)C(=S)S [diethyldithiocarbamate, Diethyldithiocarbamate]				at least some attenuation									
CCCCCCCCN [n-Octylamine, N-Octylamine]				reduced	reduced			16 ± 1 ^c %	11 ± 2%	19 ± 1 ^c,d %	32 ± 2 ^c %	29 ± 3 ^c %	11 ± 1%
Nc1ccc(S(=O)(=O)Nc2ccnn2-c2ccccc2)cc1 [sulfaphenazole, Sulfaphenazole]				at least some attenuation									
S=P(N1CC1)(N1CC1)N1CC1 [thio-tepa, Thio-tepa]				at least some attenuation									
Cc1c(C)c2c(c(C)c1O)CC[C@@](C)(CCC[C@H](C)CCC[C@H](C)CCCC(C)C)O2 [α–Tocopherol, α-Tocopherol]				attenuation of 3,4,5-TCNB cytotoxicity	attenuation of 2,3,4-TCNB cytotoxicity	attenuation of 2,4,5-TCNB cytotoxicity	not reduced	11± 1%	13 ± 1%	12 ± 2 ^d %	14 ± 3 ^d %	25 ± 2 ^c %	14 ± 1%
